Measured values from US20250032569A1, “COMPOSITION, IN PARTICULAR COSMETIC FORMULATION, COMPRISING A VERBASCOSIDE EXTRACT” (MEDENA AG, priority 2021, published 2025).

Assays:
[1] = In vitro spectrophotometric SPF calculated by the Sayre equation (Eq. 1); format: physicochemical
Description: Each sample (1 ml) was placed in a 1 cm quartz cell. The absorbance was measured between 250-600 nm at an interval of every 1 nm using a Varian UV/Vis spectrophotometer (Cary 50 Scan). The following parameters were measured and calculated for each sample assuming standard application to the skin—2 mg/cm^2: • the SPF values. • the critical wavelength λC • the UVA/UVB ratio 1. […]
Each sample (1 ml) was placed in a 1 cm quartz cell. The absorbance was measured between 250-600 nm at an interval of every 1 nm using a Varian UV/Vis spectrophotometer (Cary 50 Scan). The following parameters were measured and calculated for each sample assuming standard application to the skin—2 mg/cm^2: • the SPF values. • the critical wavelength λC • the UVA/UVB ratio
The SPF values in vitro were calculated according to the method described by Sayre et al., (Sayre, R M; Agin, P P; LeVee, G J; Marlowe, E. A comparison of in vivo and in vitro testing of sunscreening formulas, Photochem. Photobiol. 1979, 29, 559-566). The calculation was done using Equation 1: […]
where Ss(λ) is the spectral irradiance, Ser(λ) is the CIE erythema action spectrum and T(λ) is the transmission of the sunscreen. The values of Ss(λ) and Ser(λ) were taken from the literature (B. L. Diffey, J. Robson. A new substrate to measure sunscreen protection factors throughout the ultraviolet spectrum, J. Soc. Cosmet. Chem. 1989, 40, 127-133). […]
SPF values were calculated using Eq. 1 for sun protective cosmetics applied at 2 mg/cm^2 (standard application).
The same methods and equations as in the case of plant extracts were applied.
Solutions of sunscreens at concentrations 0.001% were prepared in duplicate and UV-visible absorption spectra were recorded over the range of 250-600 nm (FIG. 1). On the basis of these spectra, the transmission of the sunscreen (T) was found from monochromatic absorbance values at wavelength λ: T=10^−A(λ).
The SPF in vitro was calculated according to the method described by Sayre et al., (Sayre, R M; Agin, P P; LeVee, G J; Marlowe, E. A comparison of in vivo and in vitro testing of sunscreening formulas, Photochem. Photobiol. 1979, 29, 559-566) following equation 1: […]
where Ss(λ) is the spectral irradiance, Ser(λ) the CIE erythema action spectrum and T(λ) the trans-mission of the sunscreen. Data for Ss(λ) and Ser(λ) are available in the literature (B. L. Diffey, J. Robson. A new substrate to measure sunscreen protection factors throughout the ultraviolet spectrum, J. Soc. Cosmet. Chem. 1989, 40, 127-133).
The SPF values were calculated using Eq 1 with the application conditions 2 mg/cm^2 (Standard application recommended by the European Agency).
The SPF value for lotions were calculated using Eq. 1 for three application conditions at 2 mg/cm^2 (standard application), 2.5 mg/cm^2 and 3 mg/cm^2. In the same Table 22, critical wavelength and the UVA/UVB ratios are shown.

[2] = Critical wavelength (λC) from absorption spectra (Eq. 2); format: physicochemical; settings: for critical wavelength: chemical sunscreen, no concentration stated
Description: The Critical Wavelength λC is the wavelength, where the area under the absorbance spectrum for the irradiated product from 290 nm to λC is equal to 90% of the integral value of the absorbance spectrum from 290 to 400 nm and was calculated using Eq. 2:
where A (λ)=monochromatic absorbance values at wavelength λ. The critical wavelength was determined for all samples in order to assess a degree of UVA protection. In cases where the critical wavelength is lower than 370 nm, the protection from UVA is less evident.
The Critical Wavelength λC value for the test product was defined as that wavelength where the area under the absorbance spectrum of the sample from 290 nm to λC is 90% of the integral of the absorbance spectrum from 290 to 400 nm and is calculated using Eq. 2:
[formula] • A(λ)=monochromatic absorbance values at wavelength λ

[3] = UVA/UVB ratio from absorption spectra (Eq. 3) and Boots UVA Star Rating; format: physicochemical; settings: for ratio UVA/UVB: chemical sunscreen, no concentration stated
Description: Critical Wavelength (λC) and the UVA/UVB ratios were also calculated from the absorption spectra and were collected in Table 2. […] According to these International indications, aqueous solutions of Haberlea rhodopensis with different concentrations of myconoside can be attributed to the group of good protection (2 UVA Star Rating).
In order to further characterize solutions as skin photo-protectors from UVA, the UVA/UVB ratio was calculated using Eq. 3: […]
In order to characterize the ability of creams to protect skin against UVA the UVA/UVB ratio was calculated using Eq. 3: […]

[4] = Photo-stability under solar imitating UVA+UVB irradiation; format: physicochemical; settings: absorption spectra without and after up to 40 min irradiation
[5] = SPF calculated by modified Sayre method; format: physicochemical
Excerpt: In the following Table 20, there are SPF values obtained in vitro spectrophotometrically, which have been calculated by a classical Sayre method (Sayre, R M; Agin, P P; LeVee, G J; Marlowe, E. A comparison of in vivo and in vitro testing of sunscreening formulas, Photochem. Photobiol. 1979, 29, 559-566) and modified Sayre method, which gives results similar to those obtained in the in vivo tests recommended by COLIPA.
• (1) For water insoluble chemical filters, the modified Sayre method gives results close to those calculated by Simulator-Calculator (BASF) and the in vivo tests. The Simulator-Calculator uses the modified Sayre method assuming an exponentiation equal to 0.827 (X^0.827). • (2) For water soluble natural filters, the same modified Sayre method would give results close to those obtained by the in vivo tests (predicted by Simulator-Calculator). Examples of Cosmetic Compositions with Fully Natural Sun Protective Factors • 1. Sun protective lotion SPF 50+, high UV-A protection • 2. Sun protective cream SPF 50+, high UV-A protection • 3. Sun protective serum for pregnant and milking women SPF 50+, high UV-A protection • 4. Sun protective milk for babies SPF 50+, high UV-A protection • 5. Sun protective lotion SPF 20-30, high UV-A protection for people with highly sensitive skin E. Analysis of Sun Protective Parameters of Two Lotions and Cream Containing Lippia citriodora Extract with 40% of Verbascoside.

[6] = organic (synthetic) chemical sunscreens, Table 1; cited from earlier work
[7] = Solubility of chemical UV filters
[8] = UV filter 0.5% in sun protective cosmetic (Table 20)
[9] = UV filter 1.0% in sun protective cosmetic (Table 20)
[10] = UV filter 2.5% in sun protective cosmetic (Table 20)
[11] = chemical UV filter 0.5% in sun protective solution (Tables 12-19)
[12] = chemical UV filter 1% in sun protective solution (Tables 12-19)
[13] = chemical UV filter 2.5% in sun protective solution (Tables 12-19)
[14] = chemical UV filter 5% in sun protective solution (Tables 12-19)
[15] = chemical UV filter 10% in sun protective solution (Tables 12-19)
[16] = chemical UV filter 0.5% in sun protective solution
[17] = chemical UV filter 1% in sun protective solution
[18] = chemical UV filter 2.5% in sun protective solution
[19] = chemical UV filter 5% in sun protective solution
[20] = chemical UV filter 10% in sun protective solution
[21] = UV filter 0.5% in sun protective cosmetic
[22] = UV filter 1.0% in sun protective cosmetic
[23] = UV filter 2.5% in sun protective cosmetic
[24] = UV filter 5% in sun protective cosmetic
[25] = UV filter 10% in sun protective cosmetic
[26] = UV filter 5% in sun protective cosmetic (Table 20)

Critical wavelength (λC) [2, 16] [nm] | Critical wavelength (λC) [2, 17] [nm] | Critical wavelength (λC) [2, 18] [nm] | Critical wavelength (λC) [2, 19] [nm] | critical wavelength [2] [nm] | Photo-stability to solar imitating UVA+UVB irradiation [4] | Compound | SPF values calculated by the Sayre equation [1, 8] | SPF values calculated by the Sayre equation [1, 9] | SPF values calculated by the Sayre equation [1, 10] | SPF values [1, 11] | SPF values [1, 12] | SPF values [1, 13] | SPF values [1, 14] | SPF values calculated by Modified Sayre [5, 21] | SPF values calculated by Modified Sayre [5, 22] | SPF values calculated by Modified Sayre [5, 23] | SPF values calculated by Modified Sayre [5, 24] | Absorbs UV-B [6] | other results
365 | 365 | 365 | 365 | 365 | HIGHLY unstable | CCCCC(CC)COc1ccc(-c2nc(-c3ccc(OC)cc3)nc(-c3ccc(OCC(CC)CCCC)cc3O)n2)c(O)c1 (stereo not drawn) [Bis-ethylhexyloxyphenol methoxyphenyl triazine] | 4.8 | 19 | 93 | 5.7 | 25 | 60 | 89 | 4.2 | 7.5 | 16.1 | 29 |  | SPF ([1]; chemical UV filter 1.5%): 60; SPF ([1]; chemical UV filter 2.0%): 89; SPF values [1, 15]: 107; Critical wavelength (λC) [2, 20]: 365 nm; UVA/UVB [3, 16]: 0.50; UVA/UVB [3, 17]: 0.50; UVA/UVB [3, 18]: 0.50; UVA/UVB [3, 19]: 0.50; UVA/UVB [3, 20]: 0.50; ratio UVA/UVB [3]: 0.50; SPF values calculated by Modified Sayre [5, 25]: 50
 |  |  |  |  |  | CC(C)(C)CC(C)(C)c1cc(Cc2cc(C(C)(C)CC(C)(C)C)cc(-n3nc4ccccc4n3)c2O)c(O)c(-n2nc3ccccc3n2)c1 [Tinosorb M] |  |  |  |  |  |  |  |  |  |  |  | UV-B | 
 |  |  |  |  |  | CCCCC(CC)COc1ccc(-c2nc(-c3ccc(OC)cc3)nc(-c3ccc(OCC(CC)CCCC)cc3O)n2)c(O)c1 (stereo not drawn) [Tinosorb S] |  |  |  |  |  |  |  |  |  |  |  | UV-B | Absorbs UV-A [6]: UV-A
 |  |  |  |  |  | CCCCC(CC)COC(=O)c1ccc(Nc2nc(Nc3ccc(C(=O)NC(C)(C)C)cc3)nc(Nc3ccc(C(=O)OCC(CC)CCCC)cc3)n2)cc1 (stereo not drawn) [Uvasorb HEB] |  |  |  |  |  |  |  |  |  |  |  | UV-B | 
 |  |  |  |  |  | CCCCCCOC(=O)c1ccccc1C(=O)c1ccc(N(CC)CC)cc1O [Uvinul A plus] |  |  |  |  |  |  |  |  |  |  |  |  | Absorbs UV-A [6]: UV-A
 |  |  |  |  | HIGHLY unstable | CCCCC(CC)COC(=O)C=Cc1ccc(OC)cc1 (stereo not drawn) [octyl methoxycinnamate, Ethylhexyl methoxycinnamate] |  |  |  |  |  |  |  |  |  |  |  |  | 
385 | 385 | 385 | 385 | 385 | HIGHLY unstable | butylmethoxydibenzoylmethane [avobenzone] | 1.5 | 2.0 | 6.1 | 1.9 | 3.0 | 19 | 297 | 1.5 | 2.1 | 3.2 | 4.4 |  | SPF values calculated by the Sayre equation [1, 26]: 32

Compound | Critical wavelength (λC) [2, 16] [nm] | Critical wavelength (λC) [2, 17] [nm] | Critical wavelength (λC) [2, 18] [nm] | Critical wavelength (λC) [2, 19] [nm] | critical wavelength [2] [nm] | Photo-stability to solar imitating UVA+UVB irradiation [4] | SPF values calculated by the Sayre equation [1, 8] | SPF values calculated by the Sayre equation [1, 9] | SPF values calculated by the Sayre equation [1, 10] | SPF values [1, 11] | SPF values [1, 12] | SPF values [1, 13] | SPF values [1, 14] | SPF values calculated by Modified Sayre [5, 21] | SPF values calculated by Modified Sayre [5, 22] | SPF values calculated by Modified Sayre [5, 23] | SPF values calculated by Modified Sayre [5, 24] | Absorbs UV-B [6] | other results
CCCCCCCCCCCCc1cc(C)cc(-n2nc3ccccc3n2)c1O [benzotriazolyl dodecyl p-cresol, Benzotriazolyl dodecyl p-cresol] | 363 | 363 | 363 | 363 | 363 |  | 2.1 | 5 | 29 | 2.4 | 6 | 41 | 105 | 2.0 | 3.1 | 5.4 | 8.3 |  | SPF values calculated by the Sayre equation [1, 26]: 91; SPF values calculated by the Sayre equation ([1]; UV filter 10% in sun protective cosmetic (Table 20)): 132; SPF values [1, 15]: 157; Critical wavelength (λC) [2, 20]: 363 nm; UVA/UVB [3, 16]: 0.62; UVA/UVB [3, 17]: 0.62; UVA/UVB [3, 18]: 0.62; UVA/UVB [3, 19]: 0.62; UVA/UVB [3, 20]: 0.62; ratio UVA/UVB [3]: 0.62; SPF values calculated by Modified Sayre [5, 25]: 12.7; SPF values calculated by Modified Sayre ([5]; UV filter 20% in sun protective cosmetic): 19; Solubility in water [7]: insoluble in water
